Legend:
INS-1 cells [1] = experiment: Staurosporine-induced apoptosis assay (Annexin V-PI, flow cytometry) in INS-1 cells; type: cell-based, rat; conditions: pretreatment with the agent (none for staurosporine alone), then staurosporine 1 μmol/l for 1 h, n = 3
Description: INS-1 cells were seeded in 96-well plates at a density of 2 × 10^4 cells per well. After 36 h incubation, the cells were grown to nearly 60% confluence and the medium was replaced with RPMI 1640–exendin-4 medium diluted 1:1 (v/v) with fresh RPMI 1640 containing 10% FBS (100 μl per well). Standard GLP-1 in RPMI 1640 medium (100 nmol/l) was used as a positive control and pure RPMI 1640 medium was used as a blank control. The mixture was incubated for 24 h. The PI3K (phosphatidylinositol-3-kinase) antagonist treatment cells were preincubated with wortmannin (100 nmol/l) for 15 min before the treatment. The number of viable cells was then analyzed by cell counting kit-8 (CCK-8) assay (Biyuntian Biotech Co. Ltd.) based on the formation of formazan with sensitive changes in OD450 values. […] The absorbance was read at 450 nm using a Multiskan MK3 ELISA plate reader to determine the in vitro cell proliferation. For apoptosis assays, staurosporine (1 μmol/l) was added in all treatment groups for 1 h, after which the cells were treated with Annexin V-PI (propidium iodide) cell apoptosis kit (Biyuntian Biotech Co. Ltd.) and apoptosis was measured by flow cytometry using a FACScan (Becton Dickinson).

Caco-2 cell monolayer = experiment: Transport of exendin-4 through Caco-2 monolayer; type: in vitro ADME; conditions: Caco-2 monolayer (~21 days, transwell 0.4 μm, 4.67 cm^2), apical to basolateral, s-DMEM without antibiotics, 37°C; first 3 h; ELISA; mean ± SD, n = 3
Description: Caco-2 cells (10–20 passages) were cultivated in 25-cm^2 flasks in DMEM supplemented with 10% (v/v) FBS, 1% (v/v) non-essential amino acids and 100 IU/ml penicillin–100μg/ml streptomycin (s-DMEM) at 37°C in an atmosphere of 5% CO2 and high humidity. Upon 80% confluence, cells were harvested using 0.25% trypsin EDTA and seeded on the polyester inserts (0.4 μm pore size, 24 mm diameter, 4.67 cm^2 grown surface, Costar, Corning, NY) in 6-well transwell plates at a density of 10^5 cell/cm^2 and incubated under normal cell culture conditions. The culture medium was replaced every other day for the first week and then every day until it was ready for transport studies when the monolayer became confluent and the transepithelial electrical resistance (TEER) reading reached a plateau (about 21 days). The TEER was monitored according to the method described by Hubatsch et al.
After the Caco-2 monolayer cell became confluent, the culture medium was washed twice by PBS (pH 7.4). […] Caco-2 cell viability was then measured by trypan blue assay at 0, 2, 4 and 6 h after the addition of L14/pMG76e-exendin-4 cells. […] At predetermined time points, 100 and 200 μl supernatant samples were withdrawn from the apical and basolateral sides, respectively, for exendin-4 quantification by ELISA and replaced with an equal volume of s-DMEM without the antibiotics. […]

PDX-1 = experiment: qRT-PCR of PDX-1 mRNA expression in INS-1 cells; type: cell-based, Rattus norvegicus; conditions: INS-1 cells treated 2 h, ΔΔCT, β-actin reference, n = 3
Description: (§1) INS-1 cells were seeded in 24-well plates at a density of 10^5 cells per well and grown to 100% confluence before the assay. The medium was changed 24 h before the assay. For the assay, cells were quickly rinsed in 1 ml Hank's balanced salt solution (HBSS) with 3 mM glucose followed by a 2 h preincubation with 1 ml of the same buffer. Then the buffer was discarded, RPMI 1640–exendin-4 medium diluted 1:1 (v/v) with fresh medium plus 5 mM glucose (600 μl per well) were added, and the mixture was incubated for 2 h. Standard GLP-1 (100 nmol/l) in RPMI 1640 medium was used as a positive control. […] At the end of the incubation, supernatant was collected and centrifuged for 10 min at 4000 × g at 4°C and insulin concentration was determined by ELISA kit (Millipore, St. Charles, MO, USA). The cells were collected to analyze mRNA expression of pancreatic duodenal homeobox-1 (PDX-1) and insulin gene (Insulin).
(§2) Total RNA was isolated from INS-1 cells using TRIzol Reagent (Invitrogen). Reverse transcription was performed using PrimeScript II first-strand cDNA synthesis kit (Takara, China), containing 1 μg of total RNA as the template. qRT-PCR was carried out using a SYBR Green assay kit (Tiangen). Specific primers for PDX-1, Insulin and the internal control gene β-actin (Actb) from Rattus norvegicus were designed with Primer Premier 5 software (Table 2). […]

Insulin (Ins1 and Ins2) = experiment: qRT-PCR of insulin gene mRNA expression in INS-1 cells; type: cell-based, Rattus norvegicus; conditions: INS-1 cells treated 2 h, ΔΔCT, β-actin reference, n = 3
Description: as §1, §2

[2] = native GLP-1, rapid inactivation by DPP-IV; cited from earlier work
Text: Glucagon-like peptide-1 (GLP-1) is a potent incretin produced by L-cells of the distal ileum and colon in response to nutrient intake. It has a variety of antidiabetic effects that are mediated through β-cells in pancreatic islets and peripheral tissues. These include not only the promotion of glucose-dependent insulin secretion and inhibition of glucagon secretion, but also inhibition of food intake and body weight gain by delaying gastric emptying, increasing β-cell mass, and enhancing insulin sensitivity. However, despite its favorable antidiabet ...

INS-1 cells [3] = experiment: Insulin secretion assay in INS-1 cells; type: cell-based, rat; conditions: 5 mM glucose
Description: as §1, with “buffer.” for “buffer. Then the buffer was discarded, RPMI 1640–exendin-4 medium diluted 1:1 (v/v) with fresh medium plus 5 mM glucose (600 μl per well) were added, and the mixture was incubated for 2 h. Standard GLP-1 (100 nmol/l) in RPMI 1640 medium was used as a positive control.”

Row | Compound | Number of earliest-stage apoptotic cells, % of the control with no staurosporine (INS-1 cells [1]) | Exendin-4 transport rate through the cell monolayer (Caco-2 cell monolayer) | PDX-1 mRNA expression, fold of the blank control (PDX-1) | Insulin mRNA expression, fold of the blank control (Insulin (Ins1 and Ins2)) | Half-life in vivo [2] | Insulin secretion, higher than the blank control (RPMI 1640 only) (INS-1 cells [3]; 2 h, blank control 66.5 ± 0.5 ng/ml) | Insulin secretion (insulin concentration in supernatant) (INS-1 cells [3]; 2 h incubation, conditioned medium diluted 1:1 with fresh medium, GLP-1 at 100 nmol/l, insulin ELISA, mean ± SD, n = 3)
1 | CN[C@@H]1C[C@H]2O[C@@](C)([C@@H]1OC)n1c3ccccc3c3c4c(c5c6ccccc6n2c5c31)C(=O)NC4 [staurosporine] | 264.3% | – | – | – | – | – | –
2 | exendin-4 [standard exendin-4] | – | 0.15 ± 0.013 pMol cm^-2 h^-1 | – | – | – | – | –
3 | Glucagon-like peptide-1 [GLP-1] | 170% | – | 1.9 fold | 1.7 fold | 1 to 2 min | 7% | 71.4 ± 0.7 ng/mL
